Data: ChEMBL document CHEMBL1201862, “PubChem BioAssay data set” (2004)
Values joined by “and” are separate entries in the source; they are usually repeats but may differ in a detail not shown here. Equal values may be shown once.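 Five compound concentrations were applied to cells in 96-well plates for 48 hours; endpoints were derived by simple linear interpolation of the resulting dose-response curve. Here, GI50 denotes the concentration required for 50% inhibition of growth.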 Active and inactive are the calls of the source. Rule as the data show it: active = GI50 up to about 1.1 µM and inactive = higher.

Legend:
Experiment in all cases: NCI-60 cell line screen, 48 h
[1] = system: HCT-116
[2] = system: MDA-N
[3] = system: CAKI-1
[4] = system: SK-MEL-28
[5] = system: OVCAR-3
[6] = system: COLO 205
[7] = system: PC-3
[8] = system: HCT-15
[9] = system: HOP-92
[10] = system: OVCAR-4
[11] = system: HCC 2998
[12] = system: SK-MEL-2
[13] = system: HT-29
[14] = system: Hs-578T
[15] = system: UO-31
[16] = system: EKVX
[17] = system: NCI-H23
[18] = system: ACHN
[19] = system: Malme-3M
[20] = system: T47D
[21] = system: M14
[22] = system: UACC-257
[23] = system: SNB-75
[24] = system: TK-10
[25] = system: IGROV-1
[26] = system: KM12
[27] = system: NCI-H522
[28] = system: OVCAR-5
[29] = system: SNB-19
[30] = system: MDA-MB-435
[31] = system: BT-549
[32] = system: MDA-MB-231
[33] = system: LOX IMVI
[34] = system: SW-620
[35] = system: CCRF-CEM
[36] = system: SK-OV-3
[37] = system: SN12C
[38] = system: A549
[39] = system: MCF7
[40] = system: HL-60
[41] = system: NCI-H460
[42] = system: SF-295
[43] = system: NCI/ADR-RES
[44] = system: UACC-62
[45] = system: SF-539
[46] = system: DU-145
[47] = system: SF-268
[48] = system: NCI-H226
[49] = system: HOP-62
[50] = system: SK-MEL-5
[51] = system: A498
[52] = system: OVCAR-8
[53] = system: K562
[54] = system: 786-0
[55] = system: RXF 393
[56] = system: U-251
[57] = system: MOLT-4
[58] = system: SR
[59] = system: RPMI-8226

Q: `Cc1nc2c(Br)cc(Br)cc2c(=O)n1-c1ccccc1NC1OCC(O)C(O)C1O` (stereo unspecified) was tested. Which GI50 [1] did it give?
A: Its GI50 is 24.7 µM (inactive) and 16 µM (inactive).

Q: And the GI50 [2]?
A: Its GI50 is 33.7 µM (inactive) and 41.4 µM (inactive).

Q: What about the GI50 [3] of the same molecule?
A: The GI50 was 45.2 µM (inactive) and 28.4 µM (inactive).

Q: And the GI50 [4]?
A: The GI50 was 69.2 µM (inactive) and 74.3 µM (inactive).

Q: What about the GI50 [5] of the same molecule?
A: The GI50 was 24.3 µM (inactive) and 20.9 µM (inactive).

Q: And the GI50 [6]?
A: The GI50 was 18.6 µM (inactive) and 17.6 µM (inactive).

Q: And the GI50 [7]?
A: Its GI50 is 33.3 µM (inactive) and 46 µM (inactive).

Q: What about the GI50 [8] of the same molecule?
A: The GI50 was 48.8 µM and 41.1 µM.

Q: And the GI50 [9]?
A: The GI50 was 19.6 µM (inactive) and 35.8 µM (inactive).

Q: And the GI50 [10]?
A: Its GI50 is 24.1 µM (inactive) and 39.1 µM (inactive).

Q: And the GI50 [11]?
A: Its GI50 is 33.7 µM (inactive).

Q: And the GI50 [12]?
A: Its GI50 is 38.8 µM (inactive) and 34.3 µM (inactive).

Q: And the GI50 [13]?
A: Its GI50 is 24.9 µM (inactive) and 15.3 µM (inactive).

Q: What about the GI50 [14] of the same molecule?
A: Its GI50 is > 25.5 µM (inactive) and 39.7 µM (inactive).

Q: What about the GI50 [15] of the same molecule?
A: Its GI50 is 42.2 µM (inactive) and 30.5 µM (inactive).

Q: What about the GI50 [16] of the same molecule?
A: Its GI50 is 48.6 µM (inactive) and 39 µM (inactive).

Q: What about the GI50 [17] of the same molecule?
A: The GI50 was 20.7 µM (inactive) and 38 µM (inactive).

Q: And the GI50 [18]?
A: Its GI50 is 17.2 µM (inactive) and 32.3 µM (inactive).

Q: And the GI50 [19]?
A: The GI50 was 28.3 µM (inactive) and 37.8 µM (inactive).

Q: What about the GI50 [20] of the same molecule?
A: Its GI50 is 44 µM (inactive) and 30.5 µM (inactive).

Q: And the GI50 [21]?
A: Its GI50 is 21.8 µM (inactive) and 32.7 µM (inactive).

Q: And the GI50 [22]?
A: The GI50 was 23.7 µM (inactive) and 44.8 µM (inactive).

Q: What about the GI50 [23] of the same molecule?
A: Its GI50 is 18.8 µM (inactive) and 33 µM (inactive).

Q: What about the GI50 [24] of the same molecule?
A: Its GI50 is 23.4 µM (inactive) and 40.9 µM (inactive).

Q: And the GI50 [25]?
A: Its GI50 is 41.4 µM (inactive) and 21.2 µM (inactive).

Q: And the GI50 [26]?
A: Its GI50 is 24.7 µM (inactive).

Q: And the GI50 [27]?
A: The GI50 was 19.7 µM (inactive) and 17.4 µM (inactive).

Q: What about the GI50 [28] of the same molecule?
A: The GI50 was 44.2 µM (inactive) and 42.7 µM (inactive).

Q: And the GI50 [29]?
A: The GI50 was 40.8 µM (inactive) and 22.9 µM (inactive).

Q: And the GI50 [30]?
A: Its GI50 is 42.1 µM (inactive) and 39.4 µM (inactive).

Q: And the GI50 [31]?
A: The GI50 was 26.5 µM (inactive) and 29.3 µM (inactive).

Q: And the GI50 [32]?
A: The GI50 was 27.2 µM (inactive) and 45.7 µM (inactive).

Q: And the GI50 [33]?
A: Its GI50 is 14.6 µM (inactive) and 21.6 µM (inactive).

Q: What about the GI50 [34] of the same molecule?
A: The GI50 was 28.6 µM (inactive).

Q: What about the GI50 [35] of the same molecule?
A: Its GI50 is 21.5 µM (inactive) and 11.5 µM (inactive).

Q: What does the source list for `COc1ccc(/C=C/C(=O)OC2CC34CCNC35CC(OC5(OC)C2OC)c2ccc(OC)c(O)c24)cc1O` (stereo unspecified)?
A: GI50 [36]: > 100 µM (inactive); GI50 [37]: 55.1 µM (inactive); GI50 [2]: > 100 µM (inactive); GI50 [3]: > 100 µM (inactive); GI50 [38]: > 100 µM (inactive); GI50 [4]: 79.4 µM (inactive); GI50 [39]: > 100 µM (inactive) and 70 µM (inactive); GI50 [40]: 24.1 µM (inactive); GI50 [8]: 58.5 µM; GI50 [9]: 76 µM (inactive); GI50 [10]: > 100 µM (inactive) and 50.6 µM (inactive); GI50 [12]: > 100 µM (inactive); GI50 [41]: > 100 µM (inactive) and 57.7 µM (inactive); GI50 [14]: > 100 µM (inactive) and 52.2 µM (inactive); GI50 [15]: > 100 µM (inactive); GI50 [16]: > 100 µM (inactive); GI50 [42]: > 100 µM (inactive) and 62.4 µM (inactive); GI50 [17]: > 100 µM (inactive) and 88.1 µM (inactive); GI50 [43]: 63 µM (inactive); GI50 [44]: > 100 µM (inactive); GI50 [18]: > 100 µM (inactive) and 80.7 µM (inactive); GI50 [45]: > 100 µM (inactive) and 87.1 µM (inactive); GI50 [46]: > 100 µM (inactive); GI50 [20]: > 100 µM (inactive); GI50 [21]: > 100 µM (inactive) and 88.7 µM (inactive); GI50 [47]: > 100 µM (inactive); GI50 [22]: > 100 µM (inactive); GI50 [24]: > 100 µM (inactive); GI50 [25]: > 100 µM (inactive) and 86.3 µM (inactive); GI50 [48]: > 100 µM (inactive); GI50 [28]: > 100 µM (inactive); GI50 [29]: > 100 µM (inactive); GI50 [49]: > 100 µM (inactive) and 61.4 µM (inactive); GI50 [30]: > 100 µM (inactive); GI50 [31]: > 100 µM (inactive); GI50 [50]: 57.3 µM (inactive); GI50 [51]: > 100 µM (inactive); GI50 [52]: > 100 µM (inactive); GI50 [34]: 58.1 µM (inactive)

Q: Which results are given for `CC(C)(C)C(=O)C(C(c1ccccc1)N1CCOCC1)N1CCOCC1` (stereo unspecified)?
A: GI50 [1]: > 100 µM (inactive); GI50 [37]: > 100 µM (inactive); GI50 [2]: > 100 µM (inactive); GI50 [3]: > 100 µM (inactive); GI50 [38]: > 100 µM (inactive); GI50 [4]: > 100 µM (inactive); GI50 [53]: > 100 µM (inactive); GI50 [5]: > 100 µM (inactive); GI50 [54]: > 100 µM (inactive); GI50 [7]: > 100 µM (inactive); GI50 [8]: > 100 µM; GI50 [9]: > 100 µM (inactive); GI50 [10]: > 100 µM (inactive); GI50 [11]: > 100 µM (inactive); GI50 [12]: > 100 µM (inactive); GI50 [55]: > 100 µM (inactive); GI50 [13]: > 100 µM (inactive); GI50 [41]: > 100 µM (inactive); GI50 [14]: > 100 µM (inactive); GI50 [56]: > 100 µM (inactive); GI50 [15]: > 100 µM (inactive); GI50 [16]: > 100 µM (inactive); GI50 [42]: > 100 µM (inactive); GI50 [17]: > 100 µM (inactive); GI50 [43]: > 100 µM (inactive); GI50 [44]: > 100 µM (inactive); GI50 [18]: > 100 µM (inactive); GI50 [19]: > 100 µM (inactive); GI50 [57]: > 100 µM (inactive); GI50 [46]: > 100 µM (inactive); GI50 [20]: > 100 µM (inactive); GI50 [21]: > 100 µM (inactive); GI50 [47]: > 100 µM (inactive); GI50 [22]: > 100 µM (inactive); GI50 [23]: > 100 µM (inactive); GI50 [24]: > 100 µM (inactive); GI50 [25]: > 100 µM (inactive); GI50 [26]: > 100 µM (inactive); GI50 [58]: > 100 µM (inactive); GI50 [27]: > 100 µM (inactive); GI50 [28]: > 100 µM (inactive); GI50 [29]: > 100 µM (inactive); GI50 [49]: > 100 µM (inactive); GI50 [59]: > 100 µM (inactive); GI50 [30]: > 100 µM (inactive); GI50 [31]: > 100 µM (inactive); GI50 [32]: > 100 µM (inactive); GI50 [51]: > 100 µM (inactive); GI50 [33]: > 100 µM (inactive); GI50 [52]: > 100 µM (inactive); GI50 [34]: > 100 µM (inactive); GI50 [35]: > 100 µM (inactive)
